Test [1] concerns rat vascular smooth muscle cells. Put plainly: Vascular smooth muscle cell proliferation (cell number). It is filed as cell-based. Particulars: concentration-dependent; PTU 0.05-5 millimolar, methimazole 0.01-1 millimolar. As for the experimental part:
(§1) Rat vascular smooth muscle cells (VSMCs) (passages 5-10) were prepared from Sprague-Dawley rats and cultured in Dulbecco's modified Eagle's medium (DMEM) supplemented with 10% fetal bovine serum (FBS) as previously described (Kirschenlohr et al, in “Human Cell Culture Protocols”, New Jersey, Humana Press Inc, 1996, pp. 318-335). Human endothelial cells from umbilical veins were prepared as described (Morgan, in “Human Cell Culture Protocols”, New Jersey, Humana Press Inc, 1996, pp. 101-152)
(§2) Rat vascular smooth muscle cells and human endothelial cells were plated at a density of 10,000 cells per square centimeter in 24-well plates. After 24 hours, cells at 70-80% confluency were treated with propylthiouracil dissolved in 100% dimethylsulfoxide (DMSO) at final concentrations of from 0.05 millimolar to 15 millimolar, or with methimazole (Sigma, St. Louis, Mo.) dissolved in water at the concentrations of from 0.01 millimolar to 1 millimolar for 24-72 hours. Cell numbers were visually counted using a hemocytometer. For the thymidine incorporation study, cells were deprived of serum for 36 hours and labeled with [methyl-^3H]thymidine at […] per milliliter for 12-24 hours after synchronization. Thymidine incorporation was then measured (Newby and George, 1996, Curr. Opin. Cardiol., 11:547). Effects of propylthiouracil and methimazole on the number of vascular smooth muscle cells and human endothelial cells and thymidine incorporation by vascular smooth muscle cells were each expressed as a percentage of the number and thymidine incorporation of control cells maintained in medium containing 0.1% DMSO as vehicle.

Test [2] has the same test system. Put plainly: [methyl-3H]thymidine incorporation into VSMCs. It is filed as cell-based. Particulars: concentration-dependent. As for the experimental part: as §1, §2
(Dividing cells build labelled thymidine or BrdU into new DNA.)

The subject of a further test is endothelial cells. Particulars: summary table; cited from earlier work.
Another test has as its system smooth muscle cells. Particulars: conversion from non-contractile to contractile phenotype in vitro; cited from earlier work.
The conditions of test [3]: summary table; cited from earlier work.
For test [4] the following is noted: summary table; cited from earlier work. The source holds these as a separate data set.
The test system of test [5] is restenosis. The settings on record: summary table; cited from earlier work.
Test [6] deals with restenosis. The settings on record: summary table; cited from earlier work. This is another data set of the same source.
Test [7] relates to restenosis. Particulars: summary table; cited from earlier work. The source holds these as a separate data set.
Another test has as its system collagen expression. The settings on record: summary table; cited from earlier work.
Wherever Anti-coagulation is given: key: '+' represents the ability; a '−' represents the inability of conversion from a non-contracile phenotype to a contractile phenotype in an in vitro condition; A '↓' represents decrease; a '?' represents no data is available.
Wherever Anti-inflammation is given: key: '+' represents the ability; a '−' represents the inability of conversion from a non-contracile phenotype to a contractile phenotype in an in vitro condition; A '↓' represents decrease; a '?' represents no data is available.
Wherever Endothelial cellular function is given: key: '+' represents the ability; a '−' represents the inability of conversion from a non-contracile phenotype to a contractile phenotype in an in vitro condition; A '↓' represents decrease; a '?' represents no data is available.
Wherever Phenotype change is given: key: '+' represents the ability; a '−' represents the inability of conversion from a non-contracile phenotype to a contractile phenotype in an in vitro condition; A '↓' represents decrease; a '?' represents no data is available.

As to `Cn1cc[nH]c1=S` [methimazole], in [1], the “Inhibition of growth/proliferation of VSMCs” value is on record as “but not methimazole (MMI), significantly inhibited”. Also, in test [2], the “Inhibition of thymidine incorporation into VSMCs” value is on record as “but not methimazole (MMI), significantly inhibited”.

Consider Heparin, for which the Endothelial cellular function result in the test with endothelial cells was “−”. Further, the Phenotype change entry in the test with smooth muscle cells is listed as “−”. Also, in [3], the Anti-coagulation result is recorded as “+”. The Anti-inflammation entry in test [4] is listed as “−”. In addition, the “Effect on animal models of restenosis, Rat” value (from here on “Effect on animal models … Rat”) with restenosis [5] is “+”. Moreover, the “Effect on animal models of restenosis, Pig” value in the test with restenosis [6] was “+”. Also, the “Effect on restenosis, Human” value in the test on restenosis [7] was “−”.

As to `CC1=C(/C=C/C(C)=C/C=C/C(C)=C/C(=O)O)C(C)(C)CCC1` [All-trans retinoic acid], the Endothelial cellular function result in the test on endothelial cells is listed as “+”. For the same molecule, the Collagen expression entry with collagen expression was “↑”. In addition, the Phenotype change entry in the test on smooth muscle cells is “+”. For the same molecule, the Anti-coagulation entry in [3] was “−”. For the same molecule, in test [4], the Anti-inflammation entry is listed as “−”. The “Effect on animal models … Rat” value in the test on restenosis [5] is listed as “+”.

Regarding `CC(=O)O[C@H]1C(=O)[C@@]2(C)[C@H]([C@H](OC(=O)c3ccccc3)[C@]3(O)C[C@H](OC(=O)[C@H](O)[C@@H](NC(=O)c4ccccc4)c4ccccc4)C(C)=C1C3(C)C)[C@]1(OC(C)=O)CO[C@@H]1C[C@@H]2O` [Paclitaxel], the Endothelial cellular function entry with endothelial cells is recorded as “−”. Further, the “Effect on animal models … Rat” value in the test on restenosis [5] is given as “+”. In addition, the “Effect on animal models of restenosis, Pig” value with restenosis [6] is given as “+”. In addition, the “Effect on restenosis, Human” value in the test with restenosis [7] is recorded as “+”.

These data come from patent US6939863B2, “Prevention of atherosclerosis and restenosis” (priority 2002, dated 2005).
